# Measurements as given in PubChem BioAssay (NCI).
#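 Values below derive from 48-hour exposures of cells grown in 96-well plates, with endpoints linearly interpolated between the two concentrations bracketing the appropriate inhibition level. TGI is the concentration that stops growth completely.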
# Legend:
# Test in all cases: NCI anticancer screen, dose series, 48 h
# [1] = system: IGROV1 ovarian
# [2] = system: UO-31 renal
# [3] = system: OVCAR-5 ovarian
# [4] = system: NCI-H522 lung
# [5] = system: UACC-257 melanoma
# [6] = system: A549 NSCLC
# [7] = system: COLO 205 colon
# [8] = system: HL-60(TB) leukemia
# [9] = system: SK-OV-3 ovarian
# [10] = system: 786-0 renal
# [11] = system: HS 578T breast
# [12] = system: U251 CNS
# [13] = system: T-47D breast
# [14] = system: MDA-MB-435
# [15] = system: HCT-15 colon
# [16] = system: EKVX NSCLC
# [17] = system: HCC-2998 colon
# [18] = system: SW-620 colon
# [19] = system: LOX IMVI melanoma
# [20] = system: PC-3 prostate
# [21] = system: BT-549 breast
# [22] = system: MDA-N
# [23] = system: SF-295 CNS
# [24] = system: ACHN renal
# [25] = system: NCI-H23 lung
# [26] = system: SK-MEL-5 melanoma
# [27] = system: SNB-19 CNS
# [28] = system: TK-10 renal
# [29] = system: SNB-75 CNS
# [30] = system: HT29 colon
# [31] = system: OVCAR-3 ovarian
# [32] = system: KM12 colon
# [33] = system: SF-539 CNS
# [34] = system: MDA-MB-231 breast
# [35] = system: NCI/ADR-RES ovarian
# [36] = system: NCI-H226 lung
# [37] = system: HOP-62 NSCLC
# [38] = system: SK-MEL-2 melanoma
# [39] = system: CAKI-1 renal
# [40] = system: NCI-H460 lung
# [41] = system: UACC-62 melanoma
# [42] = system: RXF 393 renal
# [43] = system: M14 melanoma
# [44] = system: HCT-116 colon
# [45] = system: SK-MEL-28 melanoma
# [46] = system: OVCAR-8 ovarian
# [47] = system: MCF7 breast
# [48] = system: SN12C renal
# [49] = system: A498 renal
# [50] = system: MALME-3M melanoma
# [51] = system: DU-145 prostate
# [52] = system: SF-268 CNS
# [53] = system: CCRF-CEM leukemia
# [54] = system: RPMI-8226 leukemia
# [55] = system: K-562 leukemia
# [56] = system: HOP-92 NSCLC
# [57] = system: OVCAR-4 ovarian
smiles,measurement,setting,value
COc1ccc2cc(CNCCCCCCNCc3ccc4cc(OC)ccc4c3)ccc2c1,TGI,[1],3.15 µM
same,TGI,[2],3.01 µM
same,TGI,[3],2.03 µM
same,TGI,[4],1.76 µM
same,TGI,[5],3.34 µM
same,TGI,[6],3.44 µM
same,TGI,[7],0.291 µM
same,TGI,[8],0.396 µM
same,TGI,[9],3.24 µM
same,TGI,[10],2.48 µM
same,TGI,[11],3.62 µM
same,TGI,[12],0.601 µM
same,TGI,[13],2.07 µM
same,TGI,[14],0.497 µM
same,TGI,[15],1.39 µM
same,TGI,[16],2.74 µM
same,TGI,[17],0.277 µM
same,TGI,[18],0.351 µM
same,TGI,[19],0.325 µM
same,TGI,[20],0.918 µM
same,TGI,[21],3.14 µM
same,TGI,[22],0.36 µM
same,TGI,[23],0.961 µM
same,TGI,[24],2.92 µM
same,TGI,[25],3.8 µM
same,TGI,[26],2.67 µM
same,TGI,[27],1.87 µM
same,TGI,[28],3.28 µM
same,TGI,[29],2.66 µM
same,TGI,[30],0.383 µM
same,TGI,[31],1.17 µM
same,TGI,[32],0.511 µM
same,TGI,[33],3.05 µM
same,TGI,[34],1.38 µM
same,TGI,[35],2.74 µM
same,TGI,[36],3.49 µM
same,TGI,[37],3.07 µM
same,TGI,[38],2.64 µM
same,TGI,[39],2.71 µM
same,TGI,[40],0.94 µM
same,TGI,[41],2.8 µM
same,TGI,[42],3.07 µM
same,TGI,[43],0.315 µM
same,TGI,[44],0.324 µM
same,TGI,[45],1.42 µM
same,TGI,[46],1.15 µM
same,TGI,[47],1.2 µM
same,TGI,[48],2.67 µM
same,TGI,[49],2.99 µM
same,TGI,[50],2.62 µM
same,TGI,[51],2.99 µM
C/C(=N\Nc1nc2cc(C(F)(F)F)ccc2s1)c1ccccn1,TGI,[1],3.99 µM
same,TGI,[2],4.89 µM
same,TGI,[3],23.4 µM
same,TGI,[4],4.96 µM
same,TGI,[5],> 31.2 µM
same,TGI,[52],3.19 µM
same,TGI,[53],> 100 µM
same,TGI,[7],7.01 µM
same,TGI,[8],0.872 µM
same,TGI,[9],11.3 µM
same,TGI,[10],5.5 µM
same,TGI,[11],14.6 µM
same,TGI,[13],15.4 µM
same,TGI,[14],7.62 µM
same,TGI,[54],> 85.2 µM
same,TGI,[55],> 100 µM
same,TGI,[15],> 38.9 µM
same,TGI,[16],5.55 µM
same,TGI,[17],18.3 µM
same,TGI,[18],7.65 µM
same,TGI,[19],2.48 µM
same,TGI,[56],8.15 µM
same,TGI,[21],> 40.1 µM
same,TGI,[22],14.7 µM
same,TGI,[23],5.19 µM
same,TGI,[24],5.84 µM
same,TGI,[25],6.74 µM
same,TGI,[26],12.1 µM
same,TGI,[27],13.3 µM
same,TGI,[28],17.3 µM
same,TGI,[29],11.3 µM
same,TGI,[30],1.81 µM
same,TGI,[31],8.85 µM
same,TGI,[32],9.03 µM
same,TGI,[33],14.3 µM
same,TGI,[34],0.791 µM
same,TGI,[35],1.48 µM
same,TGI,[36],3.31 µM
same,TGI,[37],13.7 µM
same,TGI,[57],32.6 µM
same,TGI,[38],4.69 µM
same,TGI,[39],5.14 µM
same,TGI,[40],22.3 µM
same,TGI,[41],3.38 µM
same,TGI,[42],12.5 µM
same,TGI,[43],7.14 µM
same,TGI,[44],2.98 µM
same,TGI,[45],5.74 µM
same,TGI,[46],1.93 µM
same,TGI,[48],1.51 µM
same,TGI,[49],7.61 µM
same,TGI,[50],8.9 µM
same,TGI,[51],3.98 µM
